What is called Cmax is the peak of the concentration-time curve. By AUC is commonly meant the area under the concentration-time curve, a measure of exposure.

Values after ≈ are worked out from the molar mass of the structure shown. Where two headings read alike, the source gives them in different places.

For series [1] the following is noted: human, in vivo, cited from earlier work.
For series [2] the following is noted: in Ethanol (literature data); cited from earlier work.
For series [3] the following is noted: HIV-infected patients, 300 mg/day (Hafner et al, 1998); cited from earlier work.
The nature of series [4]: Preliminary assessment of solubility in solvents (24 h). Conditions: thermodynamic from solid, 24 h stirring at room temperature, read-out: Solubility (mg/ml) at 24 h. Format: physicochemical. On the procedure:
After 24 h stirring at room temperature, samples were centrifuged, and the supernatant analyzed by HPLC.

A short description of series [5]: Dissolution of rifabutin in DMI or DMI/water with acid and dilution with aqueous solutions. To be noted: in DMI without water or acid; longer than plausibly acceptable. Format: physicochemical.

Consider `CO[C@H]1/C=C/O[C@@]2(C)Oc3c(C)c(O)c4c(c3C2=O)C2=NC3(CCN(CC(C)C)CC3)NC2=C(NC(=O)/C(C)=C\C=C\[C@H](C)[C@H](O)[C@@H](C)[C@@H](O)[C@@H](C)[C@H](OC(C)=O)[C@@H]1C)C4=O` [rifabutin], for which the “time at which Cmax is attained after oral administration” value in series [1] (300 mg) is on record as “approximately 3 hours”. Moreover, in series [1] (po, 300 mg), the “mean Cmax” value is given as 0.375 mg/L. Also, in series [1] (po, 600 mg), the Cmax was 0.4 to 0.7 mg/L. The oral dose absorbed result in series [1] is “at least 53%”. The “Solubility (mg/ml) at 24 h” value in series [2] is 30 mg/mL (≈ 35400 µM). Further, in series [3], the area under the curve (AUC) at steady state is 8.6 ± 8.2 mg·h/L. For the same molecule, the peak concentration (Cmax) at steady state in series [3] was 0.59 ± 0.33 mg/L. The solubility at 24 h stood at 11.3 mg/mL (≈ 13300 µM) in series [4] (aqueous buffer, in Acetate buffer pH 4 (USP)); 1.9 mg/mL (≈ 2240 µM) in series [4] (aqueous buffer, in Borate buffer pH 10 (USP)); 0.3 mg/mL (≈ 354 µM) in series [4] (aqueous buffer, in Phosphate buffer pH 6 (USP)); 0.2 mg/mL (≈ 236 µM) in series [4] (aqueous buffer, in Phosphate buffer pH 8 (USP)); 0.5 mg/mL (≈ 590 µM) in series [4] (aqueous with cosolvent or surfactant or cyclodextrin, in Povidone K12 (5% w/w in water)); 1.3 mg/mL (≈ 1530 µM) in series [4] (aqueous with cosolvent or surfactant or cyclodextrin, in Tween 80 (1% w/w in water)). The solubility at 24 h was at least 245 mg/mL in series [4] (organic solvent or mixture, in Dimethyl isosorbide (DMI)); at least 204 mg/mL in series [4] (organic solvent or mixture, in Dimethylacetamide (DMA)); 0.4 mg/mL (≈ 472 µM) in series [4] (organic solvent or mixture, in Glycerol); at least 190 mg/mL in series [4] (organic solvent or mixture, in N-Methyl-2-pyrrolidone (NMP)); at least 110 mg/mL in series [4] (organic solvent or mixture, in Polyethylene glycol 400 (PEG400)); at least 92 mg/mL in series [4] (organic solvent or mixture, in Propylene glycol). The solubility at 24 h in series [4] (organic solvent or mixture, in Transcutol HP) was at least 206 mg/mL; in series [4] (saline or isotonic, in Saline 0.9%), 0.3 mg/mL (≈ 354 µM). The “Dissolution of rifabutin in DMI, concentration” value in series [5] is above 250 mg/mL.

The values are drawn from patent US11344537B2 (BIOVERSYS AG, priority 2019, dated 2022).
